Source: ChEMBL document CHEMBL3507680, “University of Dundee, Gates Library screen for HepG2 cell viability”

Assay: Human HepG2 cell viability assay in 384 well format
Type: toxicity, cell-based
Design: dose 125 nL, time 70.5 hour; cytotoxicity at 70.5 h: concentration not given beside the values
Details: HepG2 cells, read-out: Inhibition

Structure (SMILES) | cytotoxicity at 70.5 h
CC1CCN(C)c2ccccc2N1C(=O)c1ccn(C)c(=O)c1 (centres undefined) | -6.59%
c1csc(CNCC2COCc3c(-c4ccoc4)nnn3C2)n1 (centres undefined) | -8.83%
Cc1nnc(NC(=O)NCc2ccc(OC(C)C)nc2)s1 | 20.6%
Cc1cc(Nc2ncccn2)nc(C2CCCN(CCO)C2)n1 (centres undefined) | -9.85%
Cc1ccc2c(n1)N(CCN(C)C)CCN(C(=O)c1cccs1)C2 | -5.81%
CS(=O)(=O)N1CCN(C(=O)C2CSCCC(=O)N2)CC1 (centres undefined) | 19.7%
O=C(CCCOc1ccccc1)N1CCCC1Cn1cccn1 (centres undefined) | -3.8%
CNS(=O)(=O)CCCN1CCN(C(C)c2cccnc2)CC1 (centres undefined) | 18.3%
CC(C)c1nc(N2CCC(N3CCCCCC3)CC2)c2cnn(C)c2n1 | 13%
Cc1cccc(NC(=O)[C@@H]2CCCN2CC(=O)N2CCCCCC2)n1 | -4.62%
CC[C@@H]1C[C@H](C(F)(F)F)n2nc(C3CCN(S(=O)(=O)CC)CC3)cc2N1 | 18.8%
Cc1nccn1-c1ncccc1NC(=O)CCOCC(C)C | -7.64%
CCc1noc(C2CCCCN2C(=O)c2cccnc2)n1 (centres undefined) | -6.76%
CCc1cnc(CN(C)C(=O)Nc2cnn(CC3CCCO3)c2)s1 (centres undefined) | -4.76%
CCN1CCC(CC(=O)N(C)C(C)c2cncs2)CC1 (centres undefined) | -1.72%
Cc1cccc(CCC(=O)Nc2ccnn2C2CCS(=O)(=O)C2)c1 (centres undefined) | 17%
CCCS(=O)(=O)N1CCN(c2cc(-n3ccnc3)nc(C)n2)CC1 | -3.96%
CC1(C)CCN(Cc2ccccc2-c2nc(C(C)(C)C)cc(=O)[nH]2)C1 | -4.72%
COc1cc(Cl)c(C)cc1NC(=O)CCNc1ccc(C#N)cn1 | 9.88%
NC(=O)CN1CCC2(CC1)CC(=O)c1ccc3ccccc3c1O2 | -2.33%
Cc1nnc(N2CCCC3(CN(c4ccccn4)CCO3)C2)o1 (centres undefined) | 1.16%
O=S(=O)(CCN1CCOC(Cn2cccn2)C1)C(F)(F)F (centres undefined) | 11.7%
Cn1cccc1C(=O)N1CCC2(CCCN(CC3CC3)C2=O)C1 (centres undefined) | -4.86%

Structure (SMILES) | cytotoxicity at 70.5 h
CC(C)CNC(=O)CNC(=O)NC(C)COc1ccccc1F (centres undefined) | -13.5%
NC(=O)N1CCCN(Cc2cc(F)cc(Br)c2)CC1 | -8.26%
CN(C)c1cc(C(=O)N2CCCCC2CNS(C)(=O)=O)ccn1 (centres undefined) | 0.448%
O=C(CC1CCCC1)NCCNCc1cccc2c1OCCO2 | 4.62%
CC(C)CCC(C)NC(=O)c1ccc(OCC(N)=O)cc1 (centres undefined) | -3.72%
CNC(=O)c1cc2c(nc1N(C)C)CCN(S(=O)(=O)C1CC1)CC2 | 20.2%
CNC(=O)CC1CC2(CCN(c3ncccn3)CC2)c2ccccc21 (centres undefined) | -6.77%
CC(CC#N)N(C)Cc1ccccc1F (centres undefined) | -9.07%
CN(C)C(=O)c1cccc(C2CCN(c3ncccn3)CC2)n1 | -4.03%
Cc1noc(C)c1CN1CC[C@H]2OCC[C@@H](C(=O)NCC3CC3)[C@H]2C1 | -8.02%
NC(=O)c1ccccc1Oc1cnc(C2CCCN2)cn1 (centres undefined) | -7.87%
Cc1cccc(N2CCN(CCC(=O)NCc3cnc(C)cn3)CC2)c1 | 23.9%
CN(C)C(=O)CN1CCN(c2ccnc3c(F)ccc(F)c23)CC1 | -4.33%
COCCN(Cc1ccc(C)o1)C(=O)Nc1ncc(C)s1 | -8.73%
NC(=O)C(c1ccc(F)cc1)N1CCN(CCO)CC1 (centres undefined) | -6.75%
O=C1NC2(CCCCC2)c2nnnn2-c2ccc(Br)cc21 | -5.57%
Cc1nc2ccc(Cl)cn2c1CN1CCN(S(=O)(=O)N2CCCC2)CC1 | -4.72%
CS(=O)(=O)NCCn1ccc(-c2cccs2)n1 | -6.85%
NC(=O)C1CN(c2ccc3c(Cl)ccnc3c2F)CCO1 (centres undefined) | -7.96%
Cc1ccccc1OC1CN(Cc2c(C)nc3ccccn23)C1 | 26.8%
O=C(Nc1cc(-c2ccccc2)on1)N1CC[C@H](O)C1 | -1.65%
CC(C)c1nc2c(n1C)CCN(CC(=O)Nc1nncs1)C2 | 6.98%
COc1ccc(CNC(Cn2cncn2)c2ccccc2)cc1C (centres undefined) | -4.57%

Structure (SMILES) | cytotoxicity at 70.5 h
Cc1cccc(CN2CC3(CCN(Cc4ccoc4)CC3)OCC2=O)n1 | 17.7%
NS(=O)(=O)CC1CCCN1CCOc1ccccc1F (centres undefined) | -12.4%
Cc1cc(NC(=O)NCCc2cscn2)nn1C | -4.59%
O=S(=O)(Cc1ccccc1Cl)NC(CO)c1ccco1 (centres undefined) | -6.59%
CN(C)c1ncccc1CNS(=O)(=O)c1ccccc1Cl | -4.36%
Cc1ccoc1C(=O)NCc1ccnc(OCC(F)(F)F)c1 | -3.36%
Nc1nc(N)c2c(n1)OC1(COCCN(Cc3nccs3)C1)C2 (centres undefined) | -10.4%
COCCN(Cc1ccncc1)C(=O)C1COc2c(cccc2OC)C1 (centres undefined) | 0.81%
Cc1sc(CS(C)(=O)=O)nc1-c1ccc(Cl)cc1 | 14.3%
COC1CCCOC12CCN(C(=O)c1ccc3[nH]nnc3c1)CC2 (centres undefined) | -5.57%
CC(C)Cn1c2c(ccc1=O)CC(NC(=O)c1ccsc1)CC2 (centres undefined) | -11.8%
Cc1[nH]c2c(C)ccc(C)c2c1CC(=O)NCc1csc(N(C)C)n1 | 17.8%
O=C(c1cc2c(s1)CCCC2)N1CCc2nc(C3CCCN3)ncc2C1 (centres undefined) | 6.76%
Cc1ccc(C(=O)N(C)Cc2cscn2)c(=O)[nH]1 | -12.9%
COc1ccccc1CC(=O)NS(=O)(=O)c1ccc(NC(C)=O)cc1 | -6.22%
CCN1CCC2(CC1)CN(C(=O)c1cccnc1)c1ccc(Cl)cc12 | -10.5%
CN(C)C(=O)Cn1ccc2cc(NC(=O)N3CCOCC3)ccc21 | -5.35%
Cc1ccc(CN2C[C@@H](C(=O)O)[C@H](c3cccnc3)C2)s1 | 1.41%
Cc1ccc(C(=O)NCCN2CCOCC2)c(=O)[nH]1 | -11.5%
N#Cc1ccc(C(=O)N2CCC3(CC2)C(=O)Nc2ccccc23)cn1 | -11.7%
CC(=O)Nc1nc(C(=O)NC(C)c2ccncc2)cs1 (centres undefined) | 5.86%
O=C(NC[C@H]1OC[C@@H](NC2CCC2)[C@@H]1O)Nc1ccccc1 | 16.4%
O=C([C@H]1CCCO1)N1CCN(Cc2cccnc2)c2ncccc2C1 | 0.581%

Structure (SMILES) | cytotoxicity at 70.5 h
COc1cc(N2CC[C@@H]3OCCN(C)[C@H]3CC2)ncn1 | -5.78%
Cc1nc(C2CCCN2CCCNS(C)(=O)=O)no1 (centres undefined) | -0.166%
Cc1ccc(CN2C[C@H]3C(=O)N(CC4CC4)C[C@@]3(C(=O)O)C2)c(F)c1F | 9.58%
Cc1nc(C2CCCN2C(=O)c2ccc(=O)n(C)n2)no1 (centres undefined) | -5.27%
O=C(c1ccncn1)N1CCC[C@]2(C[C@@H](OCc3ccccn3)CO2)C1 | 10.5%
CCCS(=O)(=O)CCSc1cccc(C#N)c1 | -11.2%
CC(C)N1CCC(CC(=O)NC[C@H]2CCc3ccccc3O2)CC1 | -11.9%
COC(=O)CCCNC(=O)c1cc(COc2cncc(Cl)c2)on1 | 0.545%
CN1CCCN(C(=O)c2nc3c(n2C)CCN(c2ncccn2)C3)CC1 | 22.6%
O=c1ccc(-c2cccs2)nn1CN1CCOCC1 | -16.7%
COc1ccccc1NC(=O)NCCCn1nc2ccccn2c1=O | -3.26%
CC1(C)CN(S(=O)(=O)N2CCOCC2)CC1c1ccccc1 (centres undefined) | 1.45%
CCc1noc(-c2cccc(NC(=O)C(C)(C)C)c2)n1 | -11.2%
O=C(CCc1nc(Cl)n[nH]1)N[C@H]1CC[C@H]1NC1Cc2ccccc2C1 | -9.72%
Cc1ccc2c(n1)N(CCN(C)C)CCN(Cc1c(C)noc1C)C2 | -2.08%
COc1ccc(C)cc1NC(=O)Nc1cnc(O)nc1O | -6.34%
CCN(CC)C(=O)c1ccc(CNc2cncc(-n3cccn3)n2)cc1 | -7.26%
Cc1n[nH]c(C2CN(C(=O)c3ccc(Cl)o3)CCO2)n1 (centres undefined) | -11.1%
COCCCN(Cc1ccccn1)S(=O)(=O)Cc1ccccc1 | -18.4%
OCc1c(Cl)ncn1-c1ccc(F)cc1 | 2.53%
CCOc1ncccc1Cn1cc(-c2cncnc2)nn1 | -15.8%
CCOCCN1CCN(CC(O)c2ccc(F)cc2)CC1 (centres undefined) | -6.89%
CCSc1nnc(N2CCN(c3ccccc3)CC2)s1 | 0.78%

Structure (SMILES) | cytotoxicity at 70.5 h
CC(C)Nc1cccc(C(=O)NCC(O)c2cccc(F)c2)c1 (centres undefined) | -6.04%
Cc1cc(C)c(CNC(=O)N(C)Cc2ccc3c(c2)OCO3)c(=O)[nH]1 | -3.96%
Cc1nc(C2CCN(C(=O)c3cc(C4CC4)[nH]n3)CC2)no1 | -0.899%
CC(C)N1CCCC2(CCN(c3nccc(C(F)(F)F)n3)C2)C1=O (centres undefined) | -3.02%
CCOC(=O)C1CCN(c2cc(C(=O)N3CCCCC3)nc(C)n2)CC1 | -8.82%
CC(C)=CCN1C[C@@H]2CN(C(=O)c3ccc(CO)cc3)C[C@]2(C(=O)O)C1 | -12.2%
CC(C)NC(=O)N1CCCC2(CC(C(=O)Nc3ccccc3)=NO2)C1 (centres undefined) | 16.9%
CN(C)C(=O)Cn1cc(C(=O)NCCc2cccc(Cl)c2Cl)nn1 | 2.52%
CCOc1ccc(Cl)c(C(=O)NC(C)C(N)=O)n1 (centres undefined) | -5.7%
Cc1oncc1C(=O)N1CCc2ncnc(-c3cnn(C)c3)c2CC1 | -1.31%
Cn1cc(C(=O)N(Cc2ccco2)Cc2cccs2)ccc1=O | -8.8%
CC(CNC(=O)c1ccccc1Oc1cccnc1)N(C)C (centres undefined) | -6.12%
Fc1cccc(CN2CCOC3(COCCN(CC4CC4)C3)C2)c1 (centres undefined) | -8.93%
COC(C)(CNS(=O)(=O)c1cnn(C)c1)c1ccccc1F (centres undefined) | -0.155%
c1ccc(C2CCCN2C2CSCCSC2)nc1 (centres undefined) | -4.87%
Cc1c(Cl)cccc1NC(=O)CN(Cc1cccnc1)C(C)C | 1.97%
Cc1nccc(NCc2cncc3c2CCN(CC2CC2)C3)n1 | 9.03%
CCn1nc(C)cc1C(=O)N1C[C@@H]2C[C@@H](c3noc(C)n3)O[C@@H]2C1 | -6.34%
CCc1nc(CN(C(C)=O)C2CCN(Cc3csc(C)n3)C2)no1 (centres undefined) | -2.47%
Cc1nn(C)c(C)c1NC(=O)CN1CCN(c2nccs2)C(C)C1 (centres undefined) | -6.35%
CN(Cc1ccccc1)C1COC2(CCN(Cc3nccs3)CC2)C1 (centres undefined) | 10%
CCCNC(=O)c1sc(Nc2ccc(Cl)cn2)nc1C | -5%
